{"source": "patent US9012594B2", "about": "“Catalyst and byproduct-free native chemical ligation using cyclic thioester precursors” (Northwestern University, priority 2010, dated 2015)", "test_system": "cells", "experiment": "Cell adhesion on peptide-functionalized hydrogel", "type": "cell-based", "conditions": "peptide at 1% of the total cysteine groups used for hydrogel formation", "from_the_text": "The methods of macromonomer and hydrogel formation described herein provide biocompatible macromonomers and hydrogels which are easily modified with bioactive materials to improve functions of encapsulated cells such as supporting cell growth, and the development and secretion of cellular products upon biological stimulus. By “bioactive” we mean a substance that has or cause an effect on in biological samples. In this work, the macromonomers and hydrogels were further functionalized with peptides, although other bioactive materials may be used, such as proteins, growth factors, DNA, RNA. Peptides were functionalized through the Michael addition reaction between 4A-PEG-Cys and maleimide-terminated peptides prior to the cross-linking between 4A-PEG-Cys and 4A-PEG-CThE. This reaction is quantitative and fast, providing a good control over the density of peptides attached to the resulted hydrogel. Such strategy works well, when the physiological effects of peptides on cells can be achieved at low immobilization density."}
{"substance": "GRGDSPG (maleimide-GRGDSPG-NH2; also: conjugated to 4A-PEG-Cys) [cell adhesion peptide, maleimide-terminated, attached to 4A-PEG-Cys by Michael addition]", "values": [{"measurement": "cell adhesion", "result": "sufficient to support cell adhesion"}]}
